Test results from patent US9309248B2, “Azaindolines” (Hoffmann-La Roche Inc., priority 2012, dated 2016).

Tests used:
[1] = molecular target: T1, BIR3 domain of XIAP (Homo sapiens, UniProt P98170); test: TR-FRET assay for BIR3 (inhibition of binding of XIAP BIR3 domain to SMAC-derived Peptide A); conditions: 6x Histidine-tagged BIR3 domain (amino acids 241-356 of XIAP) 10 nM, Peptide A 20 nM
T1 construct: BIR3 domain, corresponding to amino acids 241-356 of XIAP
Method in brief: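 His6-tagged XIAP BIR3 (aa 241-356, 10 nM) was mixed with 20 nM biotinylated SMAC-derived peptide in 50 mM Tris-Cl pH 7.5, 100 mM NaCl, 1 mM DTT, 0.1 mg/mL BSA and incubated 45 min at 37 °C. Eu-streptavidin (1.5 nM) and APC anti-His (15 nM) were added, with TR-FRET read 1 h later at RT. IC50 came from % inhibition over 10 serial concentrations.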

[2] = molecular target: T2, BIR2 domain of XIAP (Homo sapiens, UniProt P98170, C202A/C213G); test: TR-FRET assay for BIR2 (inhibition of binding of XIAP BIR2 domain to SMAC-derived Peptide A); conditions: 6x Histidine-tagged BIR2 domain (amino acids 124-240 of XIAP) 10 nM, Peptide A 20 nM
T2 construct: 6× Histidine-tagged BIR2 domain, corresponding to amino acids 124-240 of XIAP
Method in brief: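 Inhibition of binding of the XIAP BIR2 domain (C202A/C213G) to biotinylated SMAC-derived Peptide A was measured. TR-FRET signal was read after 1 h at room temperature.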

T2 sequence (P98170 with tags, fused parts or gaps C202A/C213G): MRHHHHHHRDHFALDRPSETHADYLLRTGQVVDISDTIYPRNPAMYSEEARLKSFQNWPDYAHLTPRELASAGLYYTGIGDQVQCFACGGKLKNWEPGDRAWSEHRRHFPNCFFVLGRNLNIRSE
T1 sequence (P98170 with tags, fused parts or gaps): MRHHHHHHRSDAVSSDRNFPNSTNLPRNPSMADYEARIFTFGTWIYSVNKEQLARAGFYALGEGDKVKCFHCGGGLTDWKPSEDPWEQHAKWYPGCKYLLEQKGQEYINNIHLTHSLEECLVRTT

Row | SMILES | IC50 [1] [µM] | IC50 [2] [µM]
1 | C[C@H](NCCO)C(=O)N[C@H](C(=O)N1c2ncccc2C[C@H]1C(=O)Nc1ccccc1)C1CCCCC1 [Example 91, (S)-1-{(S)-2-Cyclohexyl-2-[(S)-2-(2-hydroxy-ethylamino)-propionylamino]-acetyl}-2,3-dihydro-1H-pyrrolo[2,3-b]pyridine-2-carboxylic acid phenylamide] | > 54.8 | 0.155
2 | CC(C)[C@H](NC(=O)[C@H](C)NCCS(C)(=O)=O)C(=O)N1c2ncccc2C[C@H]1C(=O)Nc1c(F)cccc1F [Example 92, (S)-1-{(S)-2-[(S)-2-(2-Methanesulfonyl-ethylamino)-propionylamino]-3-methyl-butyryl}-2,3-dihydro-1H-pyrrolo[2,3-b]pyridine-2-carboxylic acid (2,6-difluoro-phenyl)-amide] | > 54.8 | 2.57
3 | CN[C@@H](C)C(=O)N[C@H](C(=O)N1c2ncccc2C[C@H]1C(=O)Nc1c(F)cccc1F)C1CCOCC1 [Example 94, (S)-1-[(S)-2-((S)-2-Methylamino-propionylamino)-2-(tetrahydro-pyran-4-yl)-acetyl]-2,3-dihydro-1H-pyrrolo[2,3-b]pyridine-2-carboxylic acid (2,6-difluoro-phenyl)-amide] | > 54.8 | 0.00979
4 | CN[C@@H](C)C(=O)N[C@H](C(=O)N1c2ncccc2C[C@@H]1C(=O)Nc1c(F)cccc1F)C1CCOCC1 [Example 95, (R)-1-[(S)-2-((S)-2-Methylamino-propionylamino)-2-(tetrahydro-pyran-4-yl)-acetyl]-2,3-dihydro-1H-pyrrolo[2,3-b]pyridine-2-carboxylic acid (2,6-difluoro-phenyl)-amide] | > 54.8 | 0.607
5 | CN[C@@H](C)C(=O)N[C@@H](CCS(C)(=O)=O)C(=O)N1c2ncccc2C[C@H]1C(=O)Nc1ccccc1 [Example 96, 1-[(S)-4-Methanesulfonyl-2-((S)-2-methylamino-propionylamino)-butyryl]-2,3-dihydro-1H-pyrrolo[2,3-b]pyridine-2-carboxylic acid phenylamide] | > 54.8 | 0.108
6 | CN[C@@H](C)C(=O)N[C@@H](CCS(C)(=O)=O)C(=O)N1c2ncccc2C[C@@H]1C(=O)Nc1ccccc1 [Example 97, 1-[(S)-4-Methanesulfonyl-2-((S)-2-methylamino-propionylamino)-butyryl]-2,3-dihydro-1H-pyrrolo[2,3-b]pyridine-2-carboxylic acid phenylamide] | > 54.8 | 3.06
7 | CN[C@@H](C)C(=O)N[C@H](C(=O)N1c2ncccc2C(C)C1C(=O)Nc1c(F)cccc1F)C(C)C (stereo partly drawn) [Example 98, 3-Methyl-1-[(S)-3-methyl-2-((S)-2-methylamino-propionylamino)-butyryl]-2,3-dihydro-1H-pyrrolo[2,3-b]pyridine-2-carboxylic acid (2,6-difluoro-phenyl)-amide] | > 54.8 | 0.017
8 | CN[C@@H](C)C(=O)N[C@H](C(=O)N1c2ncccc2C[C@H]1C(=O)Nc1c(C)cccc1F)C1CCOCC1 [Example 99, (S)-1-[(S)-2-((S)-2-Methylamino-propionylamino)-2-(tetrahydro-pyran-4-yl)-acetyl]-2,3-dihydro-1H-pyrrolo[2,3-b]pyridine-2-carboxylic acid (2-fluoro-6-methyl-phenyl)-amide] | > 54.8 | 0.0116

The next lines start with the values.

Row | IC50 [1] [µM] | IC50 [2] [µM] | SMILES
9 | > 54.8 | 0.234 | CCN[C@@H](C)C(=O)N[C@H](C(=O)N1c2ncccc2C[C@H]1C(=O)Nc1ccccc1)C(C)C [Example 87, (S)-1-[(S)-2-((S)-2-Ethylamino-propionylamino)-3-methyl-butyryl]-2,3-dihydro-1H-pyrrolo[2,3-b]pyridine-2-carboxylic acid phenylamide]
10 | > 54.8 | 0.211 | CCN[C@@H](CC)C(=O)N[C@H](C(=O)N1c2ncccc2C[C@H]1C(=O)Nc1ccccc1)C(C)C [Example 88, (S)-1-[(S)-2-((S)-2-Ethylamino-butyrylamino)-3-methyl-butyryl]-2,3-dihydro-1H-pyrrolo[2,3-b]pyridine-2-carboxylic acid phenylamide]
11 | > 54.8 | 0.266 | CC(C)[C@H](NC(=O)[C@H](C)NCCO)C(=O)N1c2ncccc2C[C@H]1C(=O)Nc1ccccc1 [Example 89, (S)-1-{(S)-2-[(S)-2-(2-Hydroxy-ethylamino)-propionylamino]-3-methyl-butyryl}-2,3-dihydro-1H-pyrrolo[2,3-b]pyridine-2-carboxylic acid phenylamide]
12 | > 54.8 | 1.61 | CC[C@H](NCCO)C(=O)N[C@H](C(=O)N1c2ncccc2C[C@H]1C(=O)Nc1ccccc1)C(C)C [Example 90, (S)-1-{(S)-2-[(S)-2-(2-Hydroxy-ethylamino)-butyrylamino]-3-methyl-butyryl}-2,3-dihydro-1H-pyrrolo[2,3-b]pyridine-2-carboxylic acid phenylamide]
